Results from US5849536A, “Cloning and production of human von willebrand factor GPIb binding domain polypeptides and methods of using same” (Bio-Technology General Corp., priority 1994, dated 1998).

System: rat platelet rich plasma (PRP)
Experiment: vWF-dependent platelet aggregation assay in rat platelet rich plasma
Assay type: cell-based
Settings: ristocetin up to 5.0 mg/ml, no additional agent
Method: This is a standardized von Willebrand Factor (vWF)-dependent aggregation assay using human or rat platelet rich plasma (PRP). The addition of various concentrations of unfractionated Bothrops jararaca venom (BJV), which includes botrocetin and an additional thrombin-like component, or ristocetin results in an aggregatory response in the absence of any additional agent. Using ristocetin (1.5 mg/ml) as the agonist 43 μg/ml VCL abolished the aggregation of human PRP.

ristocetin
aggregation of rat PRP induced by the agonist: did not cause measurable aggregation
